≈ marks a conversion by molar mass, not a printed value. Like-named read-outs stand apart in the source and are kept apart here.
What was measured:
Assay type in all cases: cell-based
S. aureus ATCC 29213 [1] = assay: MIC and MBC determination; details: Staphylococcus aureus, ATCC29213
[2] = test system: Gram-positive and Gram-negative bacteria
[3] = test system: Salmonella typhi (S. typhi ATCC 6539); assay: microbe, parasite or virus in culture; details: Salmonella enterica
S. typhi ATCC 6539 = assay: Inhibition zone, paper disk/agar diffusion
Source text: (§1) The antimicrobial activity performed at the bacteriology laboratory, Botany and Microbiology Department, Faculty of Science, Al-Azhar University, Cairo, Egypt. The inhibition zone (IZ) of the tested derivatives expressed as the diameter (mm) according to the agar plate diffusion method.

E. coli ATCC 25922 [4] = assay: Inhibition zone, paper disk/agar diffusion
Source text: as §1

E. faecalis ATCC 29212 [5] = assay: Inhibition zone, paper disk/agar diffusion
Source text: as §1

P. aeruginosa ATCC 27853 [6] = assay: Inhibition zone, paper disk/agar diffusion
Source text: as §1

B. subtilis ATCC 6633 [7] = assay: Inhibition zone, paper disk/agar diffusion
Source text: as §1

S. aureus ATCC 29213 [8] = assay: Inhibition zone, paper disk/agar diffusion
Source text: as §1

E. faecalis ATCC 29212 [9] = assay: MIC and MBC determination
P. aeruginosa ATCC 27853 [10] = assay: MIC and MBC determination; details: Pseudomonas aeruginosa, ATCC27853
B. subtilis ATCC 6633 [11] = assay: MIC and MBC determination
E. coli ATCC 25922 [12] = assay: MIC and MBC determination
[13] = Gram-negative: E. coli, P. aeruginosa, S. typhi
[14] = Enterococcus faecalis, ATCC29212

Compound: CN(C)[C@@H]1C(O)=C(C(N)=O)C(=O)[C@@]2(O)C(O)=C3C(=O)c4c(O)cccc4[C@@](C)(O)[C@H]3C[C@@H]12 [Tetracycline, tetracycline, reference compound]
- MBC (S. aureus ATCC 29213 [1]): 197 ± 3.54 µM (≈ 87.5 µg/mL)
- MIC (S. aureus ATCC 29213 [1]): 141 ± 3.21 µM (≈ 62.5 µg/mL)
- MBC range [2, 13]: 42.16 to 196.89 µM
- MIC range [2, 13]: 35.14 to 140.6 µM
- MBC range ([2]; Gram-positive bacteria): 91.40 to 210.9 µM
- MIC range ([2]; Gram-positive bacteria): 70.31 to 140.63 µM
- MBC [3]: 98.44 ± 0.87 µM (≈ 43.8 µg/mL)
- MIC [3]: 70.3 ± 1.06 µM (≈ 31.2 µg/mL)
- Mean Diameter of the Inhibition Zone (S. typhi ATCC 6539): 21 ± 0.55 mm
- Mean Diameter of the Inhibition Zone (E. coli ATCC 25922 [4]): 23 ± 0.20 mm
- Mean Diameter of the Inhibition Zone (E. faecalis ATCC 29212 [5]): 22 ± 0.25 mm
- Mean Diameter of the Inhibition Zone (P. aeruginosa ATCC 27853 [6]): 20 ± 0.5 mm
- Mean Diameter of the Inhibition Zone (B. subtilis ATCC 6633 [7]): 25 ± 0.22 mm
- Mean Diameter of the Inhibition Zone (S. aureus ATCC 29213 [8]): 25 ± 0.11 mm
- MBC (E. faecalis ATCC 29212 [9]): 210.9 ± 1.78 µM (≈ 93.7 µg/mL)
- MIC (E. faecalis ATCC 29212 [9]): 140.6 ± 1.98 µM (≈ 62.5 µg/mL)
- MBC (E. faecalis ATCC 29212 [9]; [14]): 211 µM (≈ 93.7 µg/mL)
- MIC (E. faecalis ATCC 29212 [9]; [14]): 141 µM (≈ 62.5 µg/mL)
- MBC (P. aeruginosa ATCC 27853 [10]): 197 ± 2.36 µM (≈ 87.5 µg/mL)
- MIC (P. aeruginosa ATCC 27853 [10]): 141 ± 2.85 µM (≈ 62.5 µg/mL)
- MBC (B. subtilis ATCC 6633 [11]): 91.40 ± 2.89 µM (≈ 40.6 µg/mL)
- MIC (B. subtilis ATCC 6633 [11]): 70.31 ± 2.65 µM (≈ 31.2 µg/mL)
- MBC (B. subtilis ATCC 6633 [11]; Bacillus subtilis, ATCC6633): 91.4 µM (≈ 40.6 µg/mL)
- MIC (B. subtilis ATCC 6633 [11]; Bacillus subtilis, ATCC6633): 70.3 µM (≈ 31.2 µg/mL)
- MBC (E. coli ATCC 25922 [12]): 42.16 ± 0.92 µM (≈ 18.7 µg/mL)
- MIC (E. coli ATCC 25922 [12]): 35.14 ± 0.87 µM (≈ 15.6 µg/mL)
- MBC (E. coli ATCC 25922 [12]; Escherichia coli, ATCC25922): 42.2 µM (≈ 18.7 µg/mL)
- MIC (E. coli ATCC 25922 [12]; Escherichia coli, ATCC25922): 35.1 µM (≈ 15.6 µg/mL)
